Assay results published in patent US20250002954A1, “Novel Compound, Use Thereof, and Method for Producing Same, and Compound-Containing Composition, Method for Producing 4-Trehalosamine, and Microorganism” (Microbial Chemistry Research Foundation, priority 2021, published 2025).

Experiments:
[1] = pH buffer effect (pH change on addition of HCl or NaOH); type: physicochemical
Experimental: Using the purified product of 4-trehalosamine obtained in the <Purification process> of production example 10, the functionality of 4-trehalosamine as buffer reagent was determined in the following manner.
A change in pH while 50 μL to 100 μL of 1 M hydrochloric acid (HCl) or 1 M sodium hydroxide (NaOH) was added to 50 mL of aqueous solution of 10 mM 4-trehalosamine (production example 10), 50 mL of aqueous solution of 10 mM trehalose, 50 mL of 10 mM tris, 50 mL of aqueous solution of 10 mM MES (2-(N-morpholino) ethanesulfonic acid), or 50 mL of aqueous solution of 10 mM HEPES (4-(2-hydroxyethyl)-1-piperazinylethane sulfonic acid) was measured with a pH meter (LAQUA F-51, manufactured by HORIBA, Ltd.).

Bacillus subtilis 168 = experiment: Evaluation of Bacillus subtilis protective activity in freeze-dried condition; type: cell-based; conditions: for Numbers of live bacterial cells (relative numbers): Bacillus subtilis freeze-dried with 6% aqueous solution (final concentration 3%), test sample 3 (FD) = 1
Experimental: Using test samples 1 to 5 containing Bacillus subtilis prepared in the following manner, microorganism-protective activity with trehalose or 4-trehalosamine in a freeze-dried condition was evaluated.
(§1) Frozen stock of Bacillus subtilis (Bacillus subtilis 168 (obtained from ATCC)) was inoculated in 10 mL of Luria-Bertani (LB) culture medium (manufactured by Difco) and cultured at 37° C. for 24 hours while shaking it at 220 rpm. After culture, it was centrifuged at 3,000×g for 5 minutes, washed once with 10 mL of water, and then suspended in 10 mL of water, thus obtaining Bacillus subtilis suspension. 50 μL of water was added to and mixed with 50 μL of this Bacillus subtilis suspension, and the mixture was left to stand at 4° C. for 20 hours, preparing control (NF).
After Bacillus subtilis suspension was prepared in a similar manner to test sample 1, 50 μL of 6% aqueous solution of trehalose was added to and mixed with 50 µL of the Bacillus subtilis suspension, and the mixture was frozen at −80° C. for 10 minutes. It was then freeze-dried for 20 hours with a freeze dryer (FLEXI-DRY, manufactured by FTS systems INC., Warminster) connected to a vacuum pump (P65D, manufactured by PHIL Sato Vac INC.), preparing freeze-dried product (TRH) of Bacillus subtilis with TRH.
Freeze-dried product (4TA) of Bacillus subtilis with 4TA was obtained in a similar manner to the preparation method of test sample 4 except that trehalose was changed to 4-trehalosamine (4TA) in the preparation method of test sample 4.
For test samples 1 and 2, serial suspensions were made by diluting them to 1/10 with water. 100 μL of water was added to each of the freeze-dried products of test samples 3 to 5 and diluted to 1/10 with water to make their serial suspensions. […]
(§2) Wells in which the number of colonies was measurable were selected and the numbers (relative numbers) of live bacterial cells per well on test samples 1, 2, 4, and 5 when the number of live bacterial cells per well on test sample 3 (FD) was “1” were calculated in consideration of the dilution concentrations of those test samples.

[2] = tested on: trehalase derived from pig kidney; experiment: Degradation by trehalase derived from pig kidney (glucose release); type: in vitro ADME; conditions: 0.01 mM to 10 mM substrate, 0.24 units/mL, pH 5.7, 37° C., 20 minutes
Experimental: Trehalose (TRH) or the 4-trehalosamine (4TA) from the <Purification process> of production example 10 was added to and mixed with 135 mM sodium citrate buffer solution (pH 5.7) so that the final concentration was 0 mM, 0.01 mM, 0.1 mM, 1 mM, or 10 mM. Into them, trehalase derived from pig kidney (0.24 units/mL, manufactured by Sigma-Aldrich) was added and left to react at 37° C. for 20 minutes. Into the solution after reaction, a triple amount of Glucose assay reagent (manufactured by Sigma-Aldrich) was added and left to react at room temperature for 15 minutes. After that, absorbance at 340 nm was measured with a plate reader Cytation 5 (manufactured by Bio Tek Instruments) and the amount of glucose released as degradation product was estimated. FIG. 19B is a zoomed-in view of FIG. 19A.

[3] = tested on: Mycobacterium smegmatis mc^2 (ATCC 700084); experiment: Evaluation of mycobacterium-protective activity in freeze-dried condition; type: cell-based; conditions: for Numbers of live bacterial cells (relative numbers): Mycobacterium smegmatis freeze-dried with 6% aqueous solution (final concentration 3%), test sample 3 (FD) = 1
Experimental: Using test samples 1 to 5 containing mycobacterium prepared in the following manner, microorganism-protective activity with trehalose or 4-trehalosamine in a freeze-dried condition was evaluated.
as §1, with “mycobacterium ([…] Mycobacterium smegmatis mc^2 (American Type Culture Collection (ATCC) 700084))” for “Bacillus subtilis (Bacillus subtilis 168 (obtained from ATCC))”, “Middlebrook 7H9” for “Luria-Bertani (LB)”, “Becton, Dickinson and Company)” for “Difco)”, “72” for “24”, “mycobacterium” for “Bacillus subtilis”
After mycobacterium suspension was prepared in a similar manner to test sample 1, 50 μL of 6% aqueous solution of trehalose was added to and mixed with 50 µL of the mycobacterium suspension, and the mixture was frozen at −80° C. for 10 minutes. It was then freeze-dried for 20 hours with a freeze dryer (FLEXI-DRY, manufactured by FTS systems INC., Warminster) connected to a vacuum pump (P65D, manufactured by PHIL Sato Vac INC.), preparing freeze-dried product (TRH) of mycobacterium with TRH.
Freeze-dried product (4TA) of mycobacterium with 4TA was obtained in a similar manner to the preparation method of test sample 4 except that trehalose was changed to 4-trehalosamine (4TA) in the preparation method of test sample 4.
For test samples 1 and 2, serial suspensions were made by diluting them to 1/10 with water. […]
as §2

N[C@H]1[C@H](O)[C@@H](O)[C@@H](O[C@H]2O[C@H](CO)[C@@H](O)[C@H](O)[C@H]2O)O[C@@H]1CO [4-trehalosamine]
pH buffer effect ([1]; 10 mM aqueous solution, 1 M HCl or 1 M NaOH added): strong pH buffer effect comparable that of tris
pKa ([1]; aqueous solution, estimated from titration): 6.99
Numbers of live bacterial cells (relative numbers) (Bacillus subtilis 168): 100
protective effect on microorganisms, comparison (Bacillus subtilis 168; Bacillus subtilis, freeze-dried): stronger than when trehalose was added
degradation by pig trehalase (release of glucose) [2]: not degraded by pig trehalase
Numbers of live bacterial cells (relative numbers) [3]: 100
protective effect on microorganisms, comparison ([3]; Mycobacterium smegmatis, freeze-dried): stronger than when trehalose was added

OC[C@H]1O[C@H](O[C@H]2O[C@H](CO)[C@@H](O)[C@H](O)[C@H]2O)[C@H](O)[C@@H](O)[C@@H]1O [trehalose, reference compound]
Numbers of live bacterial cells (relative numbers) (Bacillus subtilis 168): 10
degradation by pig trehalase (release of glucose) [2]: degraded in this reaction and release of glucose was observed
Numbers of live bacterial cells (relative numbers) [3]: 10
